Measurements as given in ChEMBL document CHEMBL1201862, “PubChem BioAssay data set” (2004).
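Five concentrations, 48 hours, 96-well plates. At the GI50, growth is halved.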 The source made the active and inactive calls. Rule as the data show it: active = GI50 up to about 1.1 µM and inactive = higher.

Assays:
Experiment in all cases: growth of human tumour cells (NCI), 48 h
[1] = system: SNB-19
[2] = system: SR
[3] = system: OVCAR-5
[4] = system: MCF7
[5] = system: U-251
[6] = system: SF-268
[7] = system: LOX IMVI
[8] = system: CCRF-CEM
[9] = system: UO-31
[10] = system: KM12
[11] = system: HCT-15
[12] = system: 786-0
[13] = system: SN12C
[14] = system: BT-549
[15] = system: NCI-H460
[16] = system: MDA-N
[17] = system: SF-295
[18] = system: NCI-H226
[19] = system: HT-29
[20] = system: HOP-62

Compound | GI50 [1] | GI50 [2] | GI50 [3] | GI50 [4] | GI50 [5] | GI50 [6] | GI50 [7] | GI50 [8] | GI50 [9] | GI50 [10] | GI50 [11] [µM] | GI50 [12] | GI50 [13] | GI50 [14] | GI50 [15] | GI50 [16] | GI50 [17] | GI50 [18] | GI50 [19] | GI50 [20]
Nc1nc(Sc2ccc([N+](=O)[O-])c3nonc23)c2nc[nH]c2n1 | 15.8 µM (inactive) | 0.0822 µM (active) | 1.02 µM (active) | 0.593 µM (active) | 5.86 µM (inactive) | 0.681 µM (active) | 0.232 µM (active) | 0.191 µM (active) | 0.716 µM (active) | 3.21 µM (inactive) | 1.89 | 0.489 µM (active) | 1.97 µM (inactive) | 2.07 µM (inactive) | 0.627 µM (active) | 0.91 µM (active) | 0.701 µM (active) | 1.75 µM (inactive) | 1.59 µM (inactive) | 0.561 µM (active)
CC1C(c2ccccc2O)c2cc3c(cc2OC1N1CCCC1)OCO3 (configuration not stated) | 49.4 µM (inactive) | 18.8 µM (inactive) | 32.2 µM (inactive) | 26.5 µM (inactive) | 31.7 µM (inactive) | 33.3 µM (inactive) | 18.4 µM (inactive) | 23.8 µM (inactive) | 31.6 µM (inactive) | 33.5 µM (inactive) | 19.8 | 20 µM (inactive) | 19.4 µM (inactive) | 32.3 µM (inactive) | 16.1 µM (inactive) | 18.8 µM (inactive) | 27.2 µM (inactive) | 27.9 µM (inactive) | 17.1 µM (inactive) | 21.4 µM (inactive)
CC(=O)Nc1ccc2c(c1)nc1c3ccccc3ccn21 | > 100 µM (inactive) | > 100 µM (inactive) | > 100 µM (inactive) | > 100 µM (inactive) | > 100 µM (inactive) | > 100 µM (inactive) | > 100 µM (inactive) | 27.8 µM (inactive) | 90.4 µM (inactive) | 81.1 µM (inactive) | > 100 | > 100 µM (inactive) | > 100 µM (inactive) | > 100 µM (inactive) | > 100 µM (inactive) | > 100 µM (inactive) | 85.9 µM (inactive) | > 100 µM (inactive) | > 100 µM (inactive) | 50.6 µM (inactive)
O=C1CSC2=NC3=C(COC/C3=C\c3ccc(Br)cc3)C(c3ccc(Br)cc3)N12 (configuration not stated) | > 100 µM (inactive) | 15.3 µM (inactive) | > 100 µM (inactive) | 44.4 µM (inactive) | 66.5 µM (inactive) | > 100 µM (inactive) | 53.6 µM (inactive) | 17.6 µM (inactive) | 35.3 µM (inactive) | 29.1 µM (inactive) | 52.6 | 83.6 µM (inactive) | > 100 µM (inactive) | > 100 µM (inactive) | 51.2 µM (inactive) | 43 µM (inactive) | 55.7 µM (inactive) | > 100 µM (inactive) | – | > 100 µM (inactive)
O=C(CN1CCNCCN(CC(=O)N2CCCCC2)CCNCC1)N1CCCCC1 | > 100 µM (inactive) | 34.4 µM (inactive) | > 100 µM (inactive) | > 100 µM (inactive) | 93.1 µM (inactive) | – | > 100 µM (inactive) | 52.4 µM (inactive) | > 100 µM (inactive) | 17.6 µM (inactive) | > 100 | 43.6 µM (inactive) | > 100 µM (inactive) | > 100 µM (inactive) | 43 µM (inactive) | > 100 µM (inactive) | > 100 µM (inactive) | > 100 µM (inactive) | 18.2 µM (inactive) | > 100 µM (inactive)
COc1ccccc1/C=C/C1=NN(c2cccc(S(=O)(=O)O)c2)C2(C1)SCC(=O)N2c1nc2ccccc2s1 (configuration not stated) | > 100 µM (inactive) | 24.5 µM (inactive) | > 100 µM (inactive) | 44.6 µM (inactive) | 52.6 µM (inactive) | > 100 µM (inactive) | 53.5 µM (inactive) | 23 µM (inactive) | 71.9 µM (inactive) | 41.1 µM (inactive) | 67.9 | > 100 µM (inactive) | > 100 µM (inactive) | 56.1 µM (inactive) | 61.9 µM (inactive) | > 100 µM (inactive) | – | 31.7 µM (inactive) | 97.9 µM (inactive) | –
O=C(NC(=O)c1cc(-c2ccccc2)n[nH]1)c1ccccc1 | – | 24 µM (inactive) | > 100 µM (inactive) | > 100 µM (inactive) | > 100 µM (inactive) | > 100 µM (inactive) | > 100 µM (inactive) | > 100 µM (inactive) | > 100 µM (inactive) | > 100 µM (inactive) | > 100 | > 100 µM (inactive) | > 100 µM (inactive) | > 100 µM (inactive) | > 100 µM (inactive) | > 100 µM (inactive) | > 100 µM (inactive) | > 100 µM (inactive) | > 100 µM (inactive) | 64.9 µM (inactive)
O=C(O)C1CCCN1C(=O)c1cc(Cl)ccn1 (configuration not stated) | > 100 µM (inactive) | > 100 µM (inactive) | > 100 µM (inactive) | > 100 µM (inactive) | > 100 µM (inactive) | > 100 µM (inactive) | > 100 µM (inactive) | > 100 µM (inactive) | > 100 µM (inactive) | > 100 µM (inactive) | > 100 | > 100 µM (inactive) | > 100 µM (inactive) | > 100 µM (inactive) | > 100 µM (inactive) | > 100 µM (inactive) | > 100 µM (inactive) | > 100 µM (inactive) | > 100 µM (inactive) | > 100 µM (inactive)
CN(C)c1nc(NC23CC4CC(CC(C4)C2)C3)nc(N(C)C)n1 | 14.9 µM (inactive) | 14.5 µM (inactive) | 10.2 µM (inactive) | 8.15 µM (inactive) | 9.1 µM (inactive) | > 42.1 µM (inactive) | 3.36 µM (inactive) | 5.06 µM (inactive) | 31.4 µM (inactive) | 5.66 µM (inactive) | 5.15 | 15.7 µM (inactive) | 27.2 µM (inactive) | 21.4 µM (inactive) | 16.6 µM (inactive) | 8.67 µM (inactive) | 6.28 µM (inactive) | 20.4 µM (inactive) | 26.6 µM (inactive) | 15.7 µM (inactive)
O=[N+]([O-])c1ccc(Cl)cc1/C=N/C12CC3CC(CC(C3)C1)C2 | 59.6 µM (inactive) | 7.03 µM (inactive) | > 100 µM (inactive) | 31.3 µM (inactive) | 33.2 µM (inactive) | 50.2 µM (inactive) | 19.6 µM (inactive) | 5.64 µM (inactive) | 76.7 µM (inactive) | 29 µM (inactive) | 25.6 | 41.1 µM (inactive) | 51.6 µM (inactive) | > 55.7 µM (inactive) | > 74 µM (inactive) | 52.5 µM (inactive) | 57.3 µM (inactive) | 61.5 µM (inactive) | 30.6 µM (inactive) | 60.8 µM (inactive)
CCCn1c2c(c3ccccc3c1=O)C(=O)c1ccccc1-2 | > 100 µM (inactive) | 5.14 µM (inactive) | > 100 µM (inactive) | > 42.4 µM (inactive) | > 61.8 µM (inactive) | > 73.1 µM (inactive) | > 100 µM (inactive) | > 56.2 µM (inactive) | > 19.7 µM (inactive) | 20.7 µM (inactive) | – | 16.4 µM (inactive) | > 62.4 µM (inactive) | > 100 µM (inactive) | 7.23 µM (inactive) | > 100 µM (inactive) | > 80.5 µM (inactive) | > 46.5 µM (inactive) | > 29.8 µM (inactive) | 14.1 µM (inactive)
O=C(O)c1nn(-c2ccccc2-c2nnc(O)nc2O)c(=O)[nH]c1=O | > 100 µM (inactive) | > 100 µM (inactive) | > 100 µM (inactive) | > 100 µM (inactive) | > 100 µM (inactive) | > 100 µM (inactive) | > 100 µM (inactive) | 51.8 µM (inactive) | > 100 µM (inactive) | > 100 µM (inactive) | > 100 | > 100 µM (inactive) | > 100 µM (inactive) | > 100 µM (inactive) | > 100 µM (inactive) | > 100 µM (inactive) | > 100 µM (inactive) | > 100 µM (inactive) | > 100 µM (inactive) | > 100 µM (inactive)
COC(=O)CCNC(=O)OCc1ccccc1 | > 100 µM (inactive) | > 100 µM (inactive) | > 100 µM (inactive) | > 100 µM (inactive) | > 100 µM (inactive) | > 100 µM (inactive) | > 100 µM (inactive) | > 100 µM (inactive) | > 100 µM (inactive) | > 100 µM (inactive) | > 100 | > 100 µM (inactive) | > 100 µM (inactive) | > 100 µM (inactive) | > 100 µM (inactive) | > 100 µM (inactive) | > 100 µM (inactive) | > 100 µM (inactive) | > 100 µM (inactive) | > 100 µM (inactive)
CC1(C)NC2C(=O)c3c([nH]c4ccccc34)[C@]3(C)CCC1CC23 (some centres not stated) | – | 55.2 µM (inactive) | > 100 µM (inactive) | > 100 µM (inactive) | > 100 µM (inactive) | > 100 µM (inactive) | > 100 µM (inactive) | > 100 µM (inactive) | > 100 µM (inactive) | > 100 µM (inactive) | 83 | > 100 µM (inactive) | > 100 µM (inactive) | > 100 µM (inactive) | > 100 µM (inactive) | > 100 µM (inactive) | > 100 µM (inactive) | > 100 µM (inactive) | 94.8 µM (inactive) | > 100 µM (inactive)
C=CCN1C(=O)C=C(c2ccccc2)n2ncc3cccc1c32 | > 100 µM (inactive) | > 100 µM (inactive) | > 100 µM (inactive) | > 100 µM (inactive) | > 100 µM (inactive) | > 100 µM (inactive) | > 100 µM (inactive) | 67.9 µM (inactive) | > 100 µM (inactive) | 47.8 µM (inactive) | > 100 | > 100 µM (inactive) | > 100 µM (inactive) | > 100 µM (inactive) | – | > 100 µM (inactive) | > 100 µM (inactive) | > 100 µM (inactive) | 69.2 µM (inactive) | 80.4 µM (inactive)
